Measurements from patent US20260256889A1, “Pharmaceutical formulations comprising a cyclodextrin” (Novo Nordisk A/S, priority 2021, published 2026).

Test: Optimal pH (chemical and physical stability across the pH range)
Assay type: physicochemical
Text: (§1) The person skilled in the art can easily find the amylin receptor agonist's optimal pH by testing its chemical and physical stability, in an aqueous solution essentially consisting of the amylin receptor agonist, a buffer and water for injection, across the pH range.
as §1, with “GLP-1” for “amylin”, “range. The physical stability of the GLP-1 receptor agonist may be a reflection of its isoelectric point, which may coincide with the pH where poorest physical stability might be expected.” for “range.”

pH at which optimally stable: 7.4
Substance: N^6.26-{18-[N-(17-carboxyheptadecanoyl)-L-γ-glutamyl]-10-oxo-3,6, 12, 15-tetraoxa-9,18-diazaoctadecanoyl}-[8-(2-amino-2-propanoic acid),34-L-arginine] human glucagon-like peptide 1 (7-37) [Semaglutide]
